Results published in the supplement of paper PMC8960247.
Structures can show the parent of a compound that is named as a salt. ± gives the standard error.

What was measured:
621-102 (TSC2-deficient) = experiment: relative viability vs DMSO; higher = less cytotoxic; conditions: serum: 10% FBS, 72 h
621-103 (TSC2-rescued) = experiment: as above; conditions: serum: 10% FBS, 72 h
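Note: immortalized renal angiomyolipoma cells stably carrying empty vector or TSC2, dosed in 384-well plates in DMEM, viability normalized to vehicle-treated wells within each plate.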

SMILES	relative viability (621-102 (TSC2-deficient); 0.0001 µM) [%]	relative viability (621-102 (TSC2-deficient); 0.001 µM) [%]	relative viability (621-102 (TSC2-deficient); 0.01 µM) [%]	relative viability (621-102 (TSC2-deficient); 0.1 µM) [%]	relative viability (621-102 (TSC2-deficient); 1 µM) [%]	relative viability (621-102 (TSC2-deficient); 10 µM) [%]	relative viability (621-103 (TSC2-rescued); 0.0001 µM) [%]	relative viability (621-103 (TSC2-rescued); 0.001 µM) [%]	relative viability (621-103 (TSC2-rescued); 0.01 µM) [%]	relative viability (621-103 (TSC2-rescued); 0.1 µM) [%]	relative viability (621-103 (TSC2-rescued); 1 µM) [%]	relative viability (621-103 (TSC2-rescued); 10 µM) [%]
O=C(c1ccc(F)cc1)N1CCC[C@H](c2nc(-c3ccc(F)cc3)no2)C1	90.9 ± 4.4	89.5 ± 2	107 ± 1.4	104.7 ± 0.73	97.3 ± 4.3	89.7 ± 2.8	102 ± 2.5	97.8 ± 7.7	100 ± 3.3	103 ± 2.4	105 ± 0.68	108 ± 4.5
Nc1nc(N)c2nc(-c3cccc(O)c3)c(-c3cccc(O)c3)nc2n1 [TG100-115]	98.9 ± 7.9	105 ± 4.8	110.59 ± 0.023	112 ± 1.9	111 ± 5.8	95.6 ± 3.2	99.62 ± 0.33	99.8 ± 1.2	106 ± 4.6	99.3 ± 0.84	99.5 ± 1.8	100.3 ± 1
CN(C)CCOC(c1ccccc1)c1ccccc1 [Diphenhydramine HCl]	105 ± 6	97.7 ± 7.7	99.9 ± 7.9	110 ± 1.5	91.1 ± 2.4	101 ± 4.7	89.4 ± 6.2	82.9 ± 10	106.2 ± 0.96	97.3 ± 2.9	97.6 ± 1.7	99.2 ± 1.8
CCCCN1CCCCC1C(=O)Nc1c(C)cccc1C (stereo not given) [Bupivacaine HCl (marcain)]	97.4 ± 2.2	104 ± 4.4	93.47 ± 0.53	93.5 ± 1.1	94.1 ± 1.3	100 ± 2.3	89.4 ± 2.3	102 ± 4.2	98.8 ± 1.7	104 ± 4.7	94.37 ± 0.47	98.415 ± 0.003
C=CC(=O)Nc1cccc(Oc2nc(Nc3ccc(N4CCN(C)CC4)cc3)ncc2Cl)c1 [WZ3146]	112 ± 3.9	110 ± 3.5	106 ± 2.6	107 ± 3.3	97 ± 2.9	23.8 ± 5.1	103 ± 2	100.6 ± 0.42	100 ± 1.1	101 ± 1.8	79.4 ± 1.4	12.9 ± 0.067
Nc1nc(Cl)nc2c1ncn2[C@H]1C[C@H](O)[C@@H](CO)O1 [Cladribine]	106.2 ± 0.9	110 ± 1.8	113 ± 2.1	106.4 ± 0.98	97.8 ± 3.5	52.73 ± 0.19	101 ± 1.4	101 ± 2.1	105 ± 2.1	105 ± 2.4	60.3 ± 0.92	43.5 ± 0.46
Cc1cccc(-c2nn3c(c2-c2ccnc4ccc(C(N)=O)cc24)CCC3)n1	97.6 ± 7.5	87.2 ± 2	95.57 ± 0.43	109 ± 5.5	96 ± 2.2	93.9 ± 4.6	102.4 ± 0.59	93.4 ± 3.5	97.8 ± 2.9	97.7 ± 2.5	99.2 ± 0.91	106 ± 1.6
Nc1ccccc1NC(=O)c1ccc(CNc2nccc(-c3cccnc3)n2)cc1 [MGCD0103 (Mocetinostat)]	102.2 ± 1	100.9 ± 0.78	93.91 ± 0.76	83.5 ± 1.2	82.8 ± 1.6	34.1 ± 1.1	99.5 ± 1.3	102 ± 1.1	105.6 ± 0.9	93.1 ± 2.1	68.6 ± 0.98	18.5 ± 0.42
COc1cc(OC)c(/C=C/S(=O)(=O)Cc2ccc(OC)c(NCC(=O)O)c2)c(OC)c1	109 ± 2.7	109 ± 2.2	103.2 ± 0.43	97.9 ± 1.3	42 ± 1.4	30.9 ± 0.31	100.5 ± 0.4	99 ± 1.7	98.7 ± 1.2	97.9 ± 1.8	47.98 ± 0.052	24.1 ± 0.81
O=C(O)c1ccc2c(c1)nc(Nc1cccc(Cl)c1)c1ccncc12 [CX-4945]	95 ± 3.3	93.1 ± 1.6	102 ± 2.2	103.8 ± 0.2	101 ± 2.9	80.4 ± 0.94	109 ± 5.8	106.3 ± 0.77	111 ± 7.9	106 ± 3	104 ± 3.2	72.54 ± 0.24
